Test [1] addresses T1, recombinant human Wee1A kinase (Homo sapiens, UniProt P30291).
T1 construct: full length Wee1 kinase was expressed by baculovirus in insect cells; purchased Invitrogen PV3817; host or cells: insect cells (baculovirus)
Put plainly: Wee1A kinase binding assay (LanthaScreen Eu time-resolved FRET). The method in brief:
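Full-length, baculovirus-expressed GST-tagged Wee1A (5 nM) was mixed with 2 nM Eu-anti-GST antibody, 30 nM kinase tracer 178 and compound (1% DMSO). Buffer was 50 mM HEPES pH 7.5, 10 mM MgCl2, 1 mM EGTA, 0.01% Brij-35, incubated 60 min at room temperature. TR-FRET 665/615 nm emission ratios from duplicates were curve-fitted.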
For orientation: Time-resolved FRET reads energy transfer from a long-lived donor to a nearby acceptor.

The target in test [2] is T2, Myt1 kinase (recombinant PMYT-1) (Homo sapiens, UniProt Q99640).
T2 construct: full length PMYT-1 was expressed by baculovirus in insect cells; purchased Invitrogen A30984; host or cells: insect cells (baculovirus)
T2 sequence (Q99640 1-499): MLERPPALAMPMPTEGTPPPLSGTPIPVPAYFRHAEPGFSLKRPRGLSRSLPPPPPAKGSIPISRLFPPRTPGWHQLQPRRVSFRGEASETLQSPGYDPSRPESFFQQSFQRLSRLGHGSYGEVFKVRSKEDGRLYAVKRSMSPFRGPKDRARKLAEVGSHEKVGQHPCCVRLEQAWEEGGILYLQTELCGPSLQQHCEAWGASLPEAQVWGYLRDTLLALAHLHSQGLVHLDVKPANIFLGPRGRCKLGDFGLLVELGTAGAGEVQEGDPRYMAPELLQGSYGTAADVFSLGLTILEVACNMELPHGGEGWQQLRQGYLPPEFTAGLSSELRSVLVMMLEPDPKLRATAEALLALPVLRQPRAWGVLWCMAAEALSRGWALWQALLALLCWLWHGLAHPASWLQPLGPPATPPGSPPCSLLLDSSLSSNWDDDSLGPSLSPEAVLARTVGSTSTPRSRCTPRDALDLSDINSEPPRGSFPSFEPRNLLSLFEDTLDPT
Briefly: Myt1 kinase binding assay (LanthaScreen Eu Kinase Binding Assay). The method in brief:
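Compound binding to Myt1 kinase was assessed using the LanthaScreen Eu Kinase Binding Assay. This europium-based binding format was applied to quantify how strongly each compound bound to the Myt1 enzyme, and the binding affinity was reported for each compound as an IC50 value.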

Test [3] addresses T3, Wee1A kinase (CDK1 Tyr15 phosphorylation in ACHN renal cell carcinoma cells) (Homo sapiens, UniProt P30291).
T3 construct: pCDK1 Tyr15 immunofluorescence read-out
Briefly: High-content imaging of pCdk1 Y15, Wee1A kinase target engagement in ACHN cells. Format: cell-based. The method in brief:
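EC50 values come from the per-well fraction of cells with nuclear pCdk1 Y15 staining, normalised to DMSO control, by automated immunofluorescence imaging. Cells were ACHN renal carcinoma, treated 4 h with compound at 7–5,000 nM or 0.3–200 nM.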

The subject of another test is ACHN cells. Put plainly: Cell Titer Glo viability assay, ACHN cells. Format: cell-based. The following applies: Homo sapiens, 144 h, absolute EC50. The protocol:
Each of an ACHN renal cell carcinoma cell line (ATCC) and a DAOY medulloblastoma cell line, and an A427 lung cancer line were cultured in Minimum Essential Medium Eagle supplemented with 10% fetal calf serum (Sigma), 1% Penicillin-Streptomycin and 10 mM HEPES buffer (HyClone). Cell cultures were kept in a humidified incubator at 37 °C and 5% CO2. Cells were routinely tested for Mycoplasma contamination.
ACHN cells, DAOY cells, or A427 cells were seeded at a density of 400, 250, or 500 cells per well respectively, in tissue culture treated 384 well plates (Corning Costar). After overnight incubation, cells were treated with drugs at concentrations ranging from 17 to 10 000 nM. Viability compared to untreated control was assessed at 144 h using Cell Titer Glo assay 2.0 (Promega). […] “NT” means the compounds was not tested in the indicated cells.
(In ATP-based viability assays light output follows the ATP content of the culture.)

[4] abbreviates: 30 nM tracer 178, 5 nM Wee1A kinase, 2 nM Eu-labeled antibody, 60 minutes at room temperature, read-out: Wee1A kinase Binding IC50.
[5] abbreviates: 3 nM tracer 178, 2.5 nM PMYT-1, 1 nM Eu-labeled antibody, read-out: Myt1 kinase Binding IC50.
Where [6] appears, read: 4 h treatment, nuclear positivity for pCdk1 Y15 vs DMSO control, read-out: CDK1 Tyr15 Phosphorylation EC50.

Read-outs that look alike come from different tables or passages of the source.

By IC50 is commonly meant the concentration needed to halve the response being measured. For orientation: EC50 means the concentration needed to bring the measured effect to its halfway point.

T1 sequence (P30291 whole entry): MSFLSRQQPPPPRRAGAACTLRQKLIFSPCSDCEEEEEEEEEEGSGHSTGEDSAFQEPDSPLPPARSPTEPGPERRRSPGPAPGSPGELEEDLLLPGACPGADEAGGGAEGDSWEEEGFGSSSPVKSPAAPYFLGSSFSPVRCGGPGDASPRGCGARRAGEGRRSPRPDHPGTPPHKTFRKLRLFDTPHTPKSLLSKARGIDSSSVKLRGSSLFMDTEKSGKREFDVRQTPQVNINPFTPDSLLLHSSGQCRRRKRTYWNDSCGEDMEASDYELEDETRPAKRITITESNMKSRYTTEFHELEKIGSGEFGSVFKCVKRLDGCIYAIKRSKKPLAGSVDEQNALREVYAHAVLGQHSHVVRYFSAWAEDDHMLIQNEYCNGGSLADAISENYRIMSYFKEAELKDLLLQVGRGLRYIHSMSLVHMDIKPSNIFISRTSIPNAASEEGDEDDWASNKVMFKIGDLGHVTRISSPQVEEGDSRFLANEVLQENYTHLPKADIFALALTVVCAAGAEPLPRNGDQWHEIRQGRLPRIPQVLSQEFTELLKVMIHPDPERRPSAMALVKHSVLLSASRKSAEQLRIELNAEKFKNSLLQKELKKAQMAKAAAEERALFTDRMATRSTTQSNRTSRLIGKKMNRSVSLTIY
T3 sequence (P30291 whole entry): as above

As to `CCn1c(=O)c2cnc(Nc3ccc4c(cnn4C)c3)nc2n1-c1cccc(NC2CCN(C)CC2)n1` [Compound 288, 2-ethyl-6-[(1-methyl-1H-indazol-5-yl)amino]-1-{6-[(1-methylpiperidin-4-yl)amino]pyridin-2-yl}-1H,2H,3H-pyrazolo[3,4-d]pyrimidin-3-one], the results for the IC50 in test [1] (setting [4]) and in test [2] (setting [5]) were < 10 nM and > 500 nM, respectively. The half-maximal effective concentration (EC50) in test [3] (setting [6]) is < 100 nM; in the test on ACHN cells, 100 to 500 nM.
In the same order, the values of `C=CCn1c(=O)c2cnc(Nc3ccc4scnc4c3)nc2n1-c1cccc(OC2CCNCC2)n1` [Compound 246, 2-allyl-6-(benzo[d]thiazol-5-ylamino)-1-(6-(piperidin-4-yloxy)pyridin-2-yl)-1,2-dihydro-3H-pyrazolo[3,4-d]pyrimidin-3-one] are < 10 nM, < 20 nM, < 100 nM and 100 to 500 nM.
Turning to `C=CCn1c(=O)c2cnc(Nc3ccc4c(cnn4C)c3)nc2n1-c1cccc(O[C@H]2CCCN(C)C2)n1` [Compound 332, 1-{6-[(S)-1-methyl-3-piperidyloxy]-2-pyridyl}-2-allyl-6-(1-methyl-1H-indazol-5-ylamino)-1,2-dihydro-3H-1,2,5,7-tetraazainden-3-one], the IC50 in test [1] (setting [4]) was < 10 nM; in test [2] (setting [5]), 100 to 500 nM. Besides, the EC50 in test [3] (setting [6]) was < 100 nM; in the test on ACHN cells, 100 to 500 nM.
Regarding `[2H]C([2H])([2H])c1cccc(Nc2ncc3c(=O)n(CC=C)n(-c4cccc(OC5CCNCC5)n4)c3n2)c1` [Compound 334, 2-allyl-6-((3-(methyl-d3)phenyl)amino)-1-(6-(piperidin-4-yloxy)pyridin-2-yl)-1,2-dihydro-3H-pyrazolo[3,4-d]pyrimidin-3-one], the IC50 in test [1] (setting [4]) is < 10 nM; in test [2] (setting [5]) it was 20 to 100 nM. For the same compound, the values for the EC50 (in test [3] (setting [6]); in the test on ACHN cells) were < 100 nM and ≤ 100 nM, respectively.
For the compound `C=CCn1c(=O)c2cnc(Nc3ccc4c(cnn4C)c3)nc2n1-c1cccc(N(C)C2CCN(C)CC2)n1` [Compound 118, 1-{6-[N-methyl(1-methyl-4-piperidyl)amino]-2-pyridyl}-2-allyl-6-(1-methyl-1H-indazol-5-ylamino)-1,2-dihydro-3H-1,2,5,7-tetraazainden-3-one], the IC50 was < 10 nM in test [1] and > 500 nM in test [2] (Myt1 kinase Binding IC50, 3 nM tracer 178, 2.5 nM PMYT-1, 1 nM Eu-labeled antibody). For the same compound, the EC50 in test [3] (read-out: CDK1 Tyr15 Phosphorylation EC50, 4 h treatment, nuclear positivity for pCdk1 Y15 vs DMSO control) was < 100 nM; in the test with ACHN cells, ≤ 100 nM.
Turning to `C=CCn1c(=O)c2cnc(Nc3ccc4c(cnn4C)c3)nc2n1-c1cccc(N[C@@H]2CCNC2)n1` [Compound 102, 1-{6-[(R)-3-pyrrolidinylamino]-2-pyridyl}-2-allyl-6-(1-methyl-1H-indazol-5-ylamino)-1,2-dihydro-3H-1,2,5,7-tetraazainden-3-one], the values for the IC50 in test [1] (setting [4]) and in test [2] (setting [5]) were < 10 nM and 20 to 100 nM, respectively. The EC50 (in test [3] (setting [6]); with ACHN cells) was > 1000 nM each time.
For the compound `CCn1c(=O)c2cnc(Nc3ccc4c(c3)ncn4C)nc2n1-c1cccc(OC2CCN(C)CC2)n1` [Compound 235, 2-ethyl-6-((1-methyl-1H-benzo[d]imidazol-5-yl)amino)-1-(6-((1-methylpiperidin-4-yl)oxy)pyridin-2-yl)-1,2-dihydro-3H-pyrazolo[3,4-d]pyrimidin-3-one], the IC50 is < 10 nM in test [1] (setting [4]) and 20 to 100 nM in test [2] (setting [5]). The EC50 in test [3] (setting [6]) was < 100 nM; in the test with ACHN cells it was ≤ 100 nM.
For `C=CCn1c(=O)c2cnc(Nc3ccc(OCC(F)(F)F)cc3)nc2n1-c1cccc(OC2CCNCC2)n1` [Compound 227, 2-allyl-1-[6-(4-piperidyloxy)-2-pyridyl]-6-[p-(2,2,2-trifluoroethoxy)phenylamino]-1,2-dihydro-3H-1,2,5,7-tetraazainden-3-one] the same measures were < 10 nM, < 20 nM, < 100 nM and ≤ 100 nM.
As to `CCn1c(=O)c2cnc(Nc3ccc(F)cc3)nc2n1-c1cccc(OC2CCN(C)CC2)n1` [Compound 290, 2-ethyl-6-(p-fluorophenylamino)-1-[6-(1-methyl-4-piperidyloxy)-2-pyridyl]-1,2-dihydro-3H-1,2,5,7-tetraazainden-3-one], the IC50 in test [1] (setting [4]) is < 10 nM; in test [2] (setting [5]) it was 100 to 500 nM. Besides, the half-maximal effective concentration (EC50) (in test [3] (setting [6]); in the test with ACHN cells) was 100 to 500 nM each time.
Turning to `CCn1c(=O)c2cnc(Nc3cccc(C)c3)nc2n1-c1cccc(OC2CCN(C)CC2)n1` [Compound 289, 2-ethyl-1-[6-(1-methyl-4-piperidyloxy)-2-pyridyl]-6-m-toluidino-1,2-dihydro-3H-1,2,5,7-tetraazainden-3-one], the figures for the IC50 in test [1] (setting [4]) and in test [2] (setting [5]) were < 10 nM and 100 to 500 nM, respectively. Moreover, the EC50 in test [3] (setting [6]) is < 100 nM; with ACHN cells, 100 to 500 nM.
Consider `C=CCn1c(=O)c2cnc(Nc3ccc4ccncc4c3)nc2n1-c1cccc(OC2CCNCC2)n1` [Compound 240, 2-allyl-6-(7-isoquinolylamino)-1-[6-(4-piperidyloxy)-2-pyridyl]-1,2-dihydro-3H-1,2,5,7-tetraazainden-3-one], for which the IC50 is < 10 nM in test [1] (setting [4]) and 20 to 100 nM in test [2] (setting [5]). Further, the EC50 (in test [3] (setting [6]); in the test with ACHN cells) was 100 to 500 nM throughout.
Turning to `C=CCn1c(=O)c2cnc(Nc3ccc(OC)c(C)c3)nc2n1-c1cccc(NC2CCNCC2)n1` [Compound 127, 2-allyl-6-(4-methoxy-3-toluidino)-1-[6-(4-piperidylamino)-2-pyridyl]-1,2-dihydro-3H-1,2,5,7-tetraazainden-3-one], the IC50 was < 10 nM in test [1] (setting [4]) and 100 to 500 nM in test [2] (setting [5]). The half-maximal effective concentration (EC50) in test [3] (setting [6]) fell in the range of 100 to 500 nM; in the test on ACHN cells, 500 to 1000 nM.
With `C=CCn1c(=O)c2cnc(Nc3ccc(OCC(F)(F)F)c(C)c3)nc2n1-c1cccc(NC2CCN(C)CC2)n1` [Compound 181, 2-allyl-1-[6-(1-methyl-4-piperidylamino)-2-pyridyl]-6-[4-(2,2,2-trifluoroethoxy)-3-toluidino]-1,2-dihydro-3H-1,2,5,7-tetraazainden-3-one], the IC50 in test [1] (setting [4]) was < 10 nM; in test [2] (setting [5]), 100 to 500 nM. Besides, the EC50 in test [3] (setting [6]) is < 100 nM; in the test with ACHN cells, ≤ 100 nM.
For `C=CCn1c(=O)c2cnc(Nc3ccc4c(cnn4C)c3)nc2n1-c1cccc(N[C@H]2CCN(C)C2)n1` [Compound 108, 1-{6-[(S)-1-methyl-3-pyrrolidinylamino]-2-pyridyl}-2-allyl-6-(1-methyl-1H-indazol-5-ylamino)-1,2-dihydro-3H-1,2,5,7-tetraazainden-3-one] the same measures were < 10 nM, 20 to 100 nM, < 100 nM and 100 to 500 nM.
`C=CCn1c(=O)c2cnc(Nc3cc(C)nc(C)c3)nc2n1-c1cccc(OC2CCN(C)CC2)n1` [Compound 199, 6-[(2,6-dimethylpyridin-4-yl)amino]-1-{6-[(1-methylpiperidin-4-yl)oxy]pyridin-2-yl}-2-(prop-2-en-1-yl)-1H,2H,3H-pyrazolo[3,4-d]pyrimidin-3-one]: the IC50 in test [1] (setting [4]) is < 10 nM; in test [2] (setting [5]), 100 to 500 nM. In addition, the concentration giving a half-maximal response (EC50) in test [3] (setting [6]) is < 100 nM; with ACHN cells, 100 to 500 nM.
